Test results from article PMC4731831, “Better than Nature: Nicotinamide Biomimetics That Outperform Natural Coenzymes” (Journal of the American Chemical Society, 2016).

Biological target: T1, TsOYE (Thermus scotoductus, UniProt B0JDW3)
T1 construct: gene chrR; overexpressed ene reductase with FMN; construct only in supplement
Assay: anaerobic stopped-flow flavin reduction
Assay type: biochemical
Settings: apparent; reductive half-reaction; 50 mM MOPS pH 7.0, 5 mM CaCl2, 30 °C
Excerpt: anaerobic stopped-flow flavin reduction on TsOYE

SMILES	Kd
CCCCN1C=CCC(C(N)=O)=C1 [compound 2, biomimetic 2]	406 ± 12 µM
NC(=O)C1=CN([C@@H]2O[C@H](COP(=O)(O)OP(=O)(O)OC[C@H]3O[C@@H](n4cnc5c(N)ncnc54)[C@H](OP(=O)(O)O)[C@@H]3O)[C@@H](O)[C@H]2O)C=CC1 [NADPH]	9 ± 0.6 µM
NC(=O)C1=CN(Cc2ccccc2)C=CC1 [compound 1, biomimetic 1]	227 ± 5 µM
NC(=O)C1=CN([C@@H]2O[C@H](COP(=O)(O)OP(=O)(O)OC[C@H]3O[C@@H](n4cnc5c(N)ncnc54)[C@H](O)[C@@H]3O)[C@@H](O)[C@H]2O)C=CC1 [NADH]	8 ± 0.7 µM
